The structures appear in SMILES notation. Where “and” joins values, the source holds several entries; their conditions need not be identical. Equal entries are not always repeated. Some results are limits rather than exact numbers.

Data set [1] has as its target purified PARP protein (Homo sapiens, UniProt P09874). The data set is described as follows: PARP enzyme inhibition assay. The data set is classed as biochemical. To be noted: 20 nM purified PARP (5 nM for tight-binding inhibitors), 500 μM NAD+, 25° C.; several values in one cell = repeat determinations; read-out: Inhibition Constant Ki.
Data set [2] has as its system A549 cells. Nature of the data set: Cytotoxicity potentiation assay. It counts as cell-based. To be noted: test compound 0.4 μM, ratio of IC50 of topotecan alone to IC50 of topotecan with test compound. The protocol: A549 cells (ATCC, Rockville, Md.) were seeded into 96-well cell culture plates (Falcon brand, Fisher Scientific, Pittsburgh, Pa.) 16 to 24 hours before experimental manipulation. Cells were then treated with a test compound (or a combination of test compounds where indicated) each at a concentration of 0.4 μM for either 3 days or 5 days. At the end of treatments, relative cell number was determined either by MTT assay or SRB assay. For the MTT assay, 0.2 μg/μl of MTT (3-(4,5-dimethylthiazol-2-yl)-2,5-diphenyltetrazolium bromide) (Sigma Chemical Co., St. Louis, Mo.) was added to each well of a plate, and the plate was incubated in a cell-culture incubator for 4 hours. Metabolized MTT in each well was solubilized in 150 μl of DMSO (Sigma Chemical Co.) with shaking and quantified with a Wallac 1420 Victor plate reader (EG&G Wallac, Gaithersburg, Md.) at 540 nm. For the SRB assay, cells were fixed with 10% trichloroacetic acid (Sigma Chemical Co) for an hour at 4° C. After extensively washing, fixed cells were stained for 30 minutes with 0.4% sulforhodamine B (SRB, Sigma Chemical Co.) in 1% acetic acid (Sigma Chemical Co). Unbound SRB was washed away with 1% acetic acid. Then the cultures were air-dried, and dye was solubilized with 10 mM unbuffered Tris base (Sigma Chemical Co) with shaking. The bound dye was measured photometrically with the Wallac Victor plate reader at 515 nm. The ratio of the OD (optical density) value of a compound-treated culture to the OD value of a mock-treated culture, expressed in percentage, was used to quantify the cytotoxicity of a compound. […] To quantify the potentiation of the cytotoxicity of topotecan or temozolomide by test compounds, a dimensionless parameter PF50 is used and is defined as the ratio of the IC50 of topotecan or temozolomide alone to the IC50 of topotecan or temozolomide in combination with a test compound. For the compounds of the invention, PF50 values were determined by testing with topotecan.

Chain of purified PARP protein (P09874 whole entry): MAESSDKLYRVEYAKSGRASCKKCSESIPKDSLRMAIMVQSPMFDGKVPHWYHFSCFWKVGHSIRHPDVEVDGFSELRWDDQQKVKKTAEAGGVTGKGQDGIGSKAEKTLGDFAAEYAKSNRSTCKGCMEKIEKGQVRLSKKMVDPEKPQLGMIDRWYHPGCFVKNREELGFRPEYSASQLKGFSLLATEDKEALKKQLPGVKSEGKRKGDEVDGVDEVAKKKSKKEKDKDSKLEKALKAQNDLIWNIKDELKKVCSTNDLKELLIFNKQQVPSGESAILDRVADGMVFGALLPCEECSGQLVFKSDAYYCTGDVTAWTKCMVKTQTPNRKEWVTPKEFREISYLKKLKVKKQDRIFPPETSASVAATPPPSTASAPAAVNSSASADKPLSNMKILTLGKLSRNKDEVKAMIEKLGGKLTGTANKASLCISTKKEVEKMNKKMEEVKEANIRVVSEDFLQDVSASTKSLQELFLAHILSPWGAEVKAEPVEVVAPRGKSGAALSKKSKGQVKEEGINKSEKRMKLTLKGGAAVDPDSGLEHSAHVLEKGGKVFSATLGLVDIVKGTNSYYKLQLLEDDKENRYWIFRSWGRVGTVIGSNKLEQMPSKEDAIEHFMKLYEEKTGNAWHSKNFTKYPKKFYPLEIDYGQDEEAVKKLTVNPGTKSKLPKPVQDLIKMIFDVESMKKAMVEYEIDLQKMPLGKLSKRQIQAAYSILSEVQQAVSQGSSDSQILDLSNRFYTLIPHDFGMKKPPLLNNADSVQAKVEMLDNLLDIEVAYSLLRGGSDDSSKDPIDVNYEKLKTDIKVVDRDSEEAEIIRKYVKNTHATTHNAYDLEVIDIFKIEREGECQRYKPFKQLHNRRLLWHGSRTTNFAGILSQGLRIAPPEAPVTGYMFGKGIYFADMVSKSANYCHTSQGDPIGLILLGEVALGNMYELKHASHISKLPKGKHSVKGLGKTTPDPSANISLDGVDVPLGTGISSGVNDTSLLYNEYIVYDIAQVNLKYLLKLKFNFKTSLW

In general, Ki refers to a measure of affinity in units of concentration, obtained from inhibition or displacement. The term melting point denotes the temperature of the solid-liquid transition. In the case of `O=C1NCCn2c(-c3ccc(F)cc3)nc3cc(F)cc1c32` [Example 18, 4-Fluoro-1-(4-fluoro-phenyl)-8,9-dihydro-7H-2,7,9a-triaza-benzo[cd]azulen-6-one], the melting point fell in the range of 284 to 287 °C. The Ki in data set [1] worked out at 3.4 nM. The “Cytotoxicity Potentiation PF50” value in data set [2] is reported as 2.
In the case of `O=C1NCCn2c(-c3ccc(CN4CCOCC4)cc3)nc3cccc1c32` [Example 76, 1-(4-Morpholin-4-ylmethyl-phenyl)-8,9-dihydro-7H-2,7,9a-triaza-benzo[cd]azulen-6-one], the melting point was 285 to 286 °C (dec.). In data set [1], the Ki was 5.1 nM. Further, in data set [2], the “Cytotoxicity Potentiation PF50” value is listed as 1.6.
Take `CN(C)CCc1ccc(-c2nc3cccc4c3n2CCNC4=O)cc1` [Example 129, 1-[4-(2-Dimethylamino-ethyl)-phenyl]-8,9-dihydro-7H-2,7,9a-triaza-benzo[cd]azulen-6-one]: the melting point was > 98 °C (dec.). Further, in data set [1], the Ki came to 5 nM. Besides, the “Cytotoxicity Potentiation PF50” value in data set [2] amounted to 1.9.
`O=C1NCCn2c(-c3ccc(-c4ccccn4)cc3)nc3cccc1c32` [Example 126, 1-(4-Pyridin-2-yl-phenyl)-8,9-dihydro-7H-2,7,9a-triaza-benzo[cd]azulen-6-one] gave a melting point of 277 to 279 °C. Besides, the inhibitory constant (Ki) in data set [1] came to 4.1 nM. In addition, the “Cytotoxicity Potentiation PF50” value in data set [2] was 2.2.
For `O=C1NCCn2c(-c3cccc(Oc4ccccc4)c3)nc3cccc1c32` [Example 6, 1-(3-Phenoxy-phenyl)-8,9-dihydro-7H-2,7,9a-triaza-benzo[cd]azulen-6-one], in that order: 216 to 219 °C, 4.3 nM and 2.
The corresponding values for `O=C1NCCn2c(-c3ccccc3Cl)nc3cccc1c32` [Example 5, 1-(2-Chloro-phenyl)-8,9-dihydro-7H-2,7,9a-triaza-benzo[cd]azulen-6-one] are 253 to 255 °C, 7.7 nM and 1.3.
Turning to `O=C1NCCn2c(-c3ccc(C4CCCN4)cc3)nc3cccc1c32` (stereo not drawn) [Example 148, 1-(4-Pyrrolidin-2-yl-phenyl)-8,9-dihydro-7H-2,7,9a-triaza-benzo[cd]azulen-6-one], the melting point was 220 to 223 °C (dec.). In data set [1], the inhibition constant Ki is 2.8 nM. Besides, the “Cytotoxicity Potentiation PF50” value in data set [2] is reported as 2.5.
For `CNCc1ccc(-c2nc3cc(F)cc4c3n2CCNC4=O)cc1` [Example 98, 4-Fluoro-1-(4-methylaminomethyl-phenyl)-8,9-dihydro-7H-2,7,9a-triaza-benzo[cd]azulen-6-one], the melting point was 204 to 208 °C (dec.). Also, in data set [1], the Ki is 3.3 nM. Also, in data set [2], the “Cytotoxicity Potentiation PF50” value amounted to 2.1.
Regarding `CN(C)Cc1ccc(-c2nc3cc(F)cc4c3n2CCNC4=O)cc1` [Example 99, 4-Fluoro-1-(4-dimethylaminomethyl-phenyl)-8,9-dihydro-7H-2,7,9a-triaza-benzo[cd]azulen-6-one], the melting point is 240 °C (dec.). Also, in data set [1], the Ki amounted to 1.7 nM. In addition, the “Cytotoxicity Potentiation PF50” value in data set [2] turned out to be 2.0.
On to `O=C1NCCn2c(-c3ccc(C4CCCCN4)cc3)nc3cccc1c32` (stereo not drawn) [Example 130, 1-(4-Piperidin-2-yl-phenyl)-8,9-dihydro-7H-2,7,9a-triaza-benzo[cd]azulen-6-one], for which the melting point was in the range of 263 to 265 °C. In data set [1], the Ki was 4.4 nM and 5.6 nM. Besides, the “Cytotoxicity Potentiation PF50” value in data set [2] was found to be 3.4.
`O=C1NCCn2c(-c3cccs3)nc3cccc1c32` [Example 8, 1-Thiophen-2-yl-8,9-dihydro-7H-2,7,9a-triaza-benzo[cd]azulen-6-one] yielded a melting point of 247 to 250 °C. Moreover, the Ki in data set [1] is 6.2 nM. For the same compound, the “Cytotoxicity Potentiation PF50” value in data set [2] was 1.9.
As for `CN1CCCC1c1ccc(-c2nc3cccc4c3n2CCNC4=O)cc1` (stereo not drawn) [Example 149], the melting point is 235 to 238 °C (dec.). Moreover, the Ki in data set [1] was found to be 4.2 nM. Further, the “Cytotoxicity Potentiation PF50” value in data set [2] worked out at 2.6.

The record behind these values is patent US6548494B1, “Tricyclic inhibitors of poly(ADP-ribose) polymerases” (Agouron Pharmaceuticals, Inc., priority 1999, dated 2003).
